The source of these data is PubChem BioAssay (NCI).

SMILES strings stand for the structures.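 48-hour exposure; five concentrations; linearly interpolated endpoints. The concentration for 50% growth inhibition is given as GI50. TGI is the concentration that stops growth completely.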

Common to all, as to test: NCI-60 cell line screen, 48 h
Test [1] has as its system DU-145 prostate.
The subject of test [2] is HS 578T breast.
Test [3] has as its system MDA-MB-231 breast.
The test system of test [4] is MDA-MB-435.
Test [5] concerns NCI/ADR-RES ovarian.
Test [6] has as its system PC-3 prostate.
The test system of test [7] is RPMI-8226 leukemia.
For test [8], the system named is T-47D breast.
The test system of test [9] is HOP-62 NSCLC.
The test system of test [10] is HOP-92 NSCLC.
For test [11], the system named is MDA-N.

Take `Cc1cc(N(CCCCl)CCCCl)ccc1C=Nc1cccc(Cl)c1`: the TGI turned out to be 27.9 µM in test [1]; 36.2 µM in [2]; 29.3 µM in [3]; 36.2 µM in test [4]; 33.4 µM in [5]; 25.9 µM in test [6]. The TGI in test [7] was found to be 0.231 µM; in test [8], 24.1 µM.

`O=c1cc(O)c2ccccc2o1`: the TGI in test [1], in [9], in test [10], in [2], in test [3] and in test [4] was above 100 µM each time. Also, the TGI in [11], in test [5], in test [6], in test [7] and in test [8] was above 100 µM in each case.

As to `CCCCCCCCCCCCCCCCOCC(COP(=O)([O-])OCC[n+]1ccc(N(C)C)cc1)OCC` (stereo not given), the TGI came to 30.1 µM in [1]; 26.3 µM in [9]; 32.6 µM in test [10]; 31.8 µM in test [2]; 22.5 µM in [3]; 31.6 µM in test [4]. Further, the TGI in [11] was found to be 30.8 µM; in test [7] it was 17.1 µM; in [8], 37.3 µM.

For `CC[C@H](C)C1=C(O)[N@+]2([O-])Oc3ccc(-c4c(O)c(O)c(-c5ccc(OC(C)=O)cc5)c(OC(C)=O)c4OC(C)=O)cc3O[C@]2([C@@H](C)CC)C(=O)N1O`, the TGI in [1] is above 50 µM; in test [9], above 50 µM; in test [10] it was 45.8 µM; in test [2], above 50 µM; in [3], above 50 µM; in [4] it was above 50 µM. Moreover, the TGI in test [11] was above 50 µM; in [5] it was above 50 µM; in test [6] it was above 50 µM; in test [7] it was 42 µM; in [8] it was above 50 µM.

For the molecule `Nc1ccc(Nc2c3ccccc3nc3ccccc23)cc1`, the TGI in test [1], in test [9], in test [2], in [3], in [4] and in [11] was above 10 µM throughout. For the same molecule, the TGI in test [5], in test [6], in test [7] and in [8] was above 10 µM throughout.

With `COc1cc(C)c2c(=O)c3c(oc2c1)C(=O)c1c(O)c(OC)cc(O)c1C3=O`, the TGI in test [9] was 3.98 µM; in test [10] it was 1.26 µM; in [5], 2.62 µM; in test [7], 4.48 µM.

Consider `COc1ccc(OC)c(C#Cc2ccc(OC)c(C(=O)NCCc3ccc(F)cc3)c2)c1`, for which the GI50 in test [1] was above 100 µM; in [9] it was 4.94 µM. Also, the TGI in [1] is above 100 µM; in [9], above 100 µM; in test [2] it was above 100 µM; in test [4], 4.62 µM; in test [5], above 100 µM; in test [6], above 100 µM. Also, the TGI in test [7] and in test [8] was above 100 µM each time.

As to `O=C1c2ccccc2C(=O)c2c1ccc(C(=O)O)c2-c1ccc2ccccc2c1`, the TGI in test [1] is 46.6 µM; in test [9], above 100 µM; in test [2], 80.7 µM; in [3], 73.9 µM; in [4] it was 60 µM; in test [11] it was 79.2 µM. The TGI in [5] is above 100 µM; in test [6], 72.4 µM; in test [7], 83.8 µM; in test [8], 18.1 µM.

Take `COc1c(Cl)cc(S(=O)O)cc1Cl`: in test [9], the TGI was above 100 µM.

As for `CC1(O)CC23CC1CCC2(C)C12CCCC(C)(C(=O)O1)C2CC3O` (stereo not given), the TGI in [1], in [10], in test [2], in [3], in test [4] and in [11] was above 100 µM in each case. Moreover, the TGI in test [5], in test [6] and in test [8] was above 100 µM throughout.

As for `O=C(Nc1nnc(-c2c(Cl)c(Cl)c(Cl)c(Cl)c2-c2nc3cc(C(=O)c4ccccc4)ccc3[nH]2)o1)c1ccccc1`, the TGI was 47.8 µM in [1]; 26.3 µM in test [9]; 44.5 µM in test [10]; 33.7 µM in [3]; 30.8 µM in [4]; 12.6 µM in test [11]. Also, the TGI is 33.3 µM in test [5], 28.3 µM in test [6], 30.4 µM in [7] and 54.7 µM in test [8].

For `C[C@]12CC[C@H](O)C=C1CC[C@@H]1[C@@H]2CC[C@]2(C)C(=N/O)/C(=C/c3ccncc3)C[C@@H]12`, the TGI in test [1] was 19.9 µM; in test [9], 30.9 µM; in test [10], 31.6 µM; in test [2], above 100 µM; in test [3], 23.9 µM; in test [4] it was 42.8 µM. Besides, the TGI worked out at 44 µM in test [11]; 96.8 µM in [5]; 14.6 µM in test [6]; 19.9 µM in test [7]; 44.4 µM in test [8].

Take `Cc1c2cccc-2ccc2c1[nH]c1ccc(Br)cc12`: the TGI was 22.9 µM in test [1]; 20.1 µM in test [9]; 9.94 µM in test [10]; 94.3 µM in [2]; 18.8 µM in test [3]; 16.7 µM in [4]. The TGI was 18.8 µM in [11]; 38.4 µM in test [5]; 14.2 µM in test [6]; 10.2 µM in test [7]; 4.01 µM in [8].
